Consider 92 compounds from PubChem BioAssay AID504944 (Broad Institute, 2011).

Activity calls are given as the source filed them. The rule behind the calls is not given here.

Test system in one experiment: not listed separately
As to the kind of experiment: toxicity to human HeLa cells – cell-based, 48 h, plate reader, cherry-picks, set 2, cytotoxicity control, dose response (AID 504944). Conditions: HeLa cytotoxicity, plate reader, 48 h; at 13.5 µM (top of the series).
For `COc1ccc(C2=C(C=O)Cc3ccccc3O2)cc1`, the activity change, negative = toxicity is 0.173% (inactive).

Still in this experiment, the particulars now being: HeLa cytotoxicity, plate reader, 48 h; at 38 µM (top of the series).
On to `Cc1cc(NC(=O)Nc2ccccc2[N+](=O)[O-])no1`, for which the activity change, negative = toxicity was -12.9% (inactive). On the same count and under the same terms, the figure for `N#CC(c1cccc(Cl)c1)c1ncc(C(F)(F)F)cc1Cl` (configuration not stated) is -12.5% (inactive); for `COc1ccc(C(C#N)c2ccc(Cl)nn2)cc1` (configuration not stated) it is 8.42% (inactive); for `O=C1C=C(c2cccc(Cl)c2)C[C@@H](c2ccc(F)cc2)C1` it is -19.4% (inactive). Same read-out and setting: the figure for `N#CC(c1ccc(Cl)cc1)c1ccc(Cl)nn1` (configuration not stated) is -11% (inactive).

Turning to `CCOC(=O)c1ccc(-c2ccc(C=O)o2)cc1`, the activity change, negative = toxicity was 0.584% (inactive). In the case of `Cc1cc(C)nc(N(C#N)Cc2cccc([N+](=O)[O-])c2)n1`, the activity change, negative = toxicity is -8.51% (inactive). Take `Cn1cccc1C(=O)OCc1cc(-c2ccco2)on1`: the activity change, negative = toxicity was 0.43% (inactive). For the compound `CCC(C)NS(=O)(=O)c1ccc(OC)c(Cl)c1Cl` (configuration not stated), the activity change, negative = toxicity is -10.1% (inactive). `CCOC(=O)c1cc2c(s1)-c1c(C)cccc1OC2`: the activity change, negative = toxicity is -10.8% (inactive).

Regarding `Cc1ccc(S(=O)c2ccc(C)cc2)cc1`, the activity change, negative = toxicity was -9.53% (inactive).

Take `Cc1cc(NC(=O)c2c(F)c(F)c(F)c(F)c2F)no1`: the activity change, negative = toxicity is -10.1% (inactive). Regarding `O=[N+]([O-])c1ccc(N2CCCCC2)cc1`, the activity change, negative = toxicity is -9.13% (inactive). On the same count and under the same terms, next, `COC(=O)c1cc(-c2ccc(Br)cc2)on1`: -9.19% (inactive); `O=C(NCC1CC1)c1cc([N+](=O)[O-])cc([N+](=O)[O-])c1`: 5.69% (inactive). Same read-out and setting: the figure for `Cc1ccc(C)c(S(=O)(=O)NC2CCSC2=O)c1` (configuration not stated) is -5.62% (inactive); for `Cc1cccc(C(C#N)c2ccc(Cl)nn2)c1` (configuration not stated) it is -0.066% (inactive); for `N#CC(c1ccc(Cl)nn1)c1ccc(Cl)cc1Cl` (configuration not stated) it is -7.39% (inactive). For `O=[N+]([O-])c1ccc(-c2cccnc2)cc1`, the activity change, negative = toxicity was -9.26% (inactive). As for `OC(c1cccc(Cl)c1)c1nccc2ccccc12` (configuration not stated), the activity change, negative = toxicity is -10.8% (inactive). For `COc1ccc(/C(C#N)=C/c2cccnc2)cc1`, the activity change, negative = toxicity is -8.3% (inactive). On to `O=[N+]([O-])c1ccc(N2CCCC2)nc1`, for which the activity change, negative = toxicity was -3.24% (inactive).

As for `O=C1C=C(c2cc(F)ccc2F)C[C@@H](c2ccc(F)cc2)C1`, the activity change, negative = toxicity was -9.01% (inactive).

For the compound `Cc1ccc(C(C#N)c2ccc(Cl)nn2)cc1` (configuration not stated), the activity change, negative = toxicity is -10.6% (inactive).

Regarding `O=C(NC1CCCC1)c1cccc(Cl)c1`, the activity change, negative = toxicity is 2.48% (inactive). Consider `Cc1cccc(NC(=O)Nc2cc(C)on2)c1`, for which the activity change, negative = toxicity is -3.2% (inactive). Still for that read-out and setting: next, `C=CCOC(=O)c1ccc(-n2cnc(C)n2)nc1`: -2.17% (inactive); `CCCNS(=O)(=O)c1ccc(OC)c(Cl)c1Cl`: -2.35% (inactive). On the same count and under the same terms, next, `O=C(NC1CCCC1)c1cc(Cl)ccc1[N+](=O)[O-]`: -2.55% (inactive). Same read-out and setting: the figure for `C#CCSc1ncc(-c2ccccc2)cn1` is -4.45% (inactive); for `COC(=O)c1ccc(NC(=S)N2CCCC2)cc1` it is 0.525% (inactive). Turning to `O=C(c1cccc([N+](=O)[O-])c1)N1CC2C3C=CC(C3)C2C1` (configuration not stated), the activity change, negative = toxicity is -2.29% (inactive). Still for that read-out and setting: the figure for `O=C1C2C3C=CC(C4CC34)C2C(=O)N1Cc1ccco1` (configuration not stated) is -2.48% (inactive). With `O=CNC1(c2ccccc2)CCCCC1`, the activity change, negative = toxicity is -10.5% (inactive).

For the compound `COc1ccc(CNCc2cccc(Cl)c2)cc1`, the activity change, negative = toxicity was 3.92% (inactive). In the case of `N#CC1C(C#N)C2CCC1C1C2N1c1ccccc1` (configuration not stated), the activity change, negative = toxicity is -9.52% (inactive).

For the compound `CCNC(=O)COc1ccc2ccccc2c1`, the activity change, negative = toxicity is -6.43% (inactive). Consider `CCOC(=O)CC(C#N)c1cn(C)c2ccccc12` (configuration not stated), for which the activity change, negative = toxicity was -3.91% (inactive). Same read-out and setting: the figure for `Cn1cccc1C(C#N)c1cccc(F)c1C#N` (configuration not stated) is -11.4% (inactive); for `O=C(NC1CCCCCCC1)c1cccc(Cl)c1` it is -22.5% (inactive).

Turning to `O=CN(c1ccccc1)c1ccc2ccccc2c1`, the activity change, negative = toxicity is -5.5% (inactive). For `Cc1cc(S(=O)(=O)NCC2CC2)c(Cl)cc1Cl`, the activity change, negative = toxicity was -4.01% (inactive). `CCOC(=O)c1ccc(-c2ccc(CO)o2)cc1`: the activity change, negative = toxicity is -14.8% (inactive).

For the compound `CSc1nnc(-c2ccc([N+](=O)[O-])cc2)o1`, the activity change, negative = toxicity is -10.7% (inactive). On the same count and under the same terms, the figure for `N#CC(c1ccc(Cl)cc1)c1ncc(C(F)(F)F)cc1Cl` (configuration not stated) is -15% (inactive); for `CCOC(=O)c1ccc(N2Cc3ccccc3C2=N)cc1` it is -10.6% (inactive); for `Cn1cccc1C(C#N)c1ccccc1C#N` (configuration not stated) it is -10.8% (inactive). As to `CCOC(=O)CCCn1ncn2c(cc3occc32)c1=O`, the activity change, negative = toxicity is -0.83% (inactive). Still for that read-out and setting: the figure for `N#CC(Sc1ccccn1)c1ccc(Cl)cc1` (configuration not stated) is -11% (inactive); for `COC(=O)c1cc(-c2ccc(OC)cc2)on1` it is 4.16% (inactive). For the compound `O=[N+]([O-])c1ccc(N2CCCCC2)nc1`, the activity change, negative = toxicity is -0.44% (inactive). The same measure, in the same setting: next, `Cc1cc(NC(=O)c2cc([N+](=O)[O-])cc([N+](=O)[O-])c2C)no1`: -10.2% (inactive). Still for that read-out and setting: next, `N#CC(c1ccc(Cl)nn1)c1c(F)cccc1Cl` (configuration not stated): -4.99% (inactive); `COc1ccc(/C=C/C(=O)c2ccoc2)cc1`: -17.6% (inactive); `CC(C)N=C(NC#N)SCc1ccccc1F`: 0.214% (inactive). The same measure, in the same setting: next, `Nc1ccc(OCc2ccccc2)cc1[N+](=O)[O-]`: -5.72% (inactive); `Cc1ccc2scc(CN3CCCC3)c2c1`: -3.48% (inactive). Consider `N#Cc1cc(-c2ccccc2)cnc1Cl`, for which the activity change, negative = toxicity was -4.08% (inactive).

For the compound `COc1ccccc1C(C#N)c1cccc(Cl)n1` (configuration not stated), the activity change, negative = toxicity was -0.092% (inactive). As to `Cc1ccc(S(=O)(=O)NCCC(C)C)cc1[N+](=O)[O-]`, the activity change, negative = toxicity was -2.87% (inactive). Same read-out and setting: next, `CCCCCC1CC(COc2ccccc2)OC1=O` (configuration not stated): -3.8% (inactive); `CSC1=N/C(=C\C=C\c2cccs2)C(=O)S1`: -8.63% (inactive); `Clc1ccc2scc(CN3CCCC3)c2c1`: -10.3% (inactive). On the same count and under the same terms, next, `O=S1(=O)CCOC[C@H](c2ccccc2)N1Cc1cccc(Cl)c1`: -9.16% (inactive); `Clc1ccc2scc(CN3CCCCC3)c2c1`: -2.59% (inactive). On the same count and under the same terms, next, `O=C1N[C@@H](Cc2ccccc2)[C@@H](c2ccco2)O1`: -3.87% (inactive). As to `N#CN(Cc1ccccc1)Cc1ccccc1`, the activity change, negative = toxicity was 2.47% (inactive). Consider `CCOc1ccc(CNC2CCCc3ccccc32)cc1` (configuration not stated), for which the activity change, negative = toxicity was -11.3% (inactive). The same measure, in the same setting: the figure for `CCOC1=CC(=O)OC(c2ccccc2)C1` (configuration not stated) is -12.2% (inactive). Take `Cc1cc(C)nc(N(C#N)Cc2ccccc2)n1`: the activity change, negative = toxicity is 2.63% (inactive). On the same count and under the same terms, next, `COC(=O)c1ccc(OC(=O)c2ccco2)cc1`: -11.8% (inactive).

Regarding `CCOc1ccc(-n2cccc2C=O)cc1`, the activity change, negative = toxicity is -8.05% (inactive). Same read-out and setting: the figure for `Clc1cccc(CNCCCSc2ncccn2)c1` is -1.31% (inactive); for `O=C(NC1CCS(=O)(=O)C1)c1cccc(Br)c1` (configuration not stated) it is -1.62% (inactive). Take `COC(=O)c1ccc(OC(=O)c2cccs2)cc1`: the activity change, negative = toxicity was -10.9% (inactive). Same read-out and setting: the figure for `O=C1C2C(C(=O)N1Cc1ccco1)C1C=CC2C12CC2` (configuration not stated) is -4.39% (inactive); for `N#CCn1c(C2CCCCC2)nc2ccccc2c1=O` it is 0.099% (inactive). In the case of `CC(C)CCNC(=O)c1cccc(Cl)c1`, the activity change, negative = toxicity is -10.7% (inactive). Regarding `COc1ccc(N=C(C)C2=C(O)CSC2=O)cc1`, the activity change, negative = toxicity was 5.59% (inactive). `N#CC(c1ccccc1)c1cccc(Cl)n1` (configuration not stated): the activity change, negative = toxicity is 1.47% (inactive). As to `CCOC(=O)N1CCN(c2ccc(Cl)cc2)CC1`, the activity change, negative = toxicity is 5.84% (inactive). The same measure, in the same setting: next, `COc1ccc(N2CCN(C(=O)c3ccc(Br)o3)CC2)cc1`: -5.84% (inactive); `N#CC(c1ccc(Cl)nn1)c1ccccc1Cl` (configuration not stated): -3.51% (inactive); `CC(C)(C)NC(=O)c1cc(Cl)ccc1[N+](=O)[O-]`: -2.21% (inactive). Turning to `N#CC(c1ccc(Cl)cc1)c1cccc(Cl)n1` (configuration not stated), the activity change, negative = toxicity was -6.14% (inactive).

Another experiment has as its system HeLa cytotoxicity, plate reader, 48 h. The experiment is described as above.
Settings: not given
The term AC50 denotes the concentration at which the activity in the assay is half-maximal. Turning to `CO/N=C/c1cn(-c2ccc(Cl)cc2)nn1`, the AC50 is 22.3 µM. Still for that read-out and setting: next, `N#C/C(=C/c1ccco1)c1nc2ccccc2s1`: 24.4 µM. As to `O=CC1=C(c2ccccc2)Oc2ccccc2O1`, the AC50 was 20.6 µM. The same measure, in the same setting: next, `Cc1cc(NC(=O)c2cc([N+](=O)[O-])ccc2Cl)no1`: 29.1 µM. Same read-out and setting: next, `O=C(Nc1ncc([N+](=O)[O-])s1)c1cccc([N+](=O)[O-])c1`: 14.3 µM; `CCOC(=O)/C=C(\C)Sc1cc(=O)oc2ccccc12`: 23.9 µM.
